We go through 29 compounds from patent publication US20250206730A1 (AUTOTELIC BIO INC., priority 2022, published 2025).

The structures appear in SMILES notation. A value given as a limit tells only on which side of the number the result lay.

One test has as its system TGF-β signaling. Briefly: Assay for evaluating cellular inhibition of TGF-β signaling, HEK293 (SBE reporter) luciferase reporter. The conditions noted are these: Homo sapiens; HEK293 (SBE reporter) stable cells, 0.5% FBS, 2 h pre-treatment, TGF-β1 2 ng/mL 24 h; read-out: IC50 HEK 293 Cell. It is filed as cell-based. On the procedure:
[Example 2] Assay for Evaluating Cellular Inhibition of TGF-β Signaling
4T1 (SBE-luc2P) transient pool that have SBE-luc2P (hygro) expression plasmid or HEK293 (SBE reporter) stable cells (BPS bioscience) were seeded at 6×10^3 cells/well or 2.5×10^4 cells/well in 96-well plate, respectively. 4T1 (SBE-luc2P) transient pool were pre-treated with novel compound synthesized in Example 1 above in 0.2% FBS at approximately 60% confluence at 37° C. in 5% CO2. Also, HEK293 (SBE reporter) stable cells were pre-treated with each test compounds of formula in 0.5% FBS at approximately 80% confluence at 37° C. in 5% CO2. After 2 hours, cells were treated with TGF-β1 (2 ng/mL) for 24 h at 37° C. in 5% CO2. Cell lysates were prepared using Luciferase Assay (Promega) according to the manufacturer's instruction, and luminescence was measured by a plate reader, Biotek Synergy H1 (Vermont, USA).
On the technique in general: A reporter such as luciferase makes a cellular process visible.

The next test concerns the target T1, ALK5 kinase (Homo sapiens, UniProt P36897).
T1 sequence (P36897 34-503): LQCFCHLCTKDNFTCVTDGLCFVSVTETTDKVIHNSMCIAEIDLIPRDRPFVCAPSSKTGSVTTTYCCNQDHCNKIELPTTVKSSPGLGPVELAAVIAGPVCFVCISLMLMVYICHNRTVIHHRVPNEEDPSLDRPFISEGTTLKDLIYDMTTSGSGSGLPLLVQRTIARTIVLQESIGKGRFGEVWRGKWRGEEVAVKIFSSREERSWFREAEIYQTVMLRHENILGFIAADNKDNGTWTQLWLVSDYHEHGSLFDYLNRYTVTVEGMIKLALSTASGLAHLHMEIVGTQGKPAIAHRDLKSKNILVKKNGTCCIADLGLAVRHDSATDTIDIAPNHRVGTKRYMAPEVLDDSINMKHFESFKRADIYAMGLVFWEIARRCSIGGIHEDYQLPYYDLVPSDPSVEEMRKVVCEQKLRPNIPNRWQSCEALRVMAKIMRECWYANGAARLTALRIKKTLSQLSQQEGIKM
In words: LanthaScreen Eu Kinase Binding Assay. To be noted: Kinase Tracer 178, Eu-anti-GST Antibody, read-out: IC50 Enzyme. In short, it runs like this:
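Compound (1% DMSO final) preincubated 30 min at RT with GST-tagged ALK5, then Eu-anti-GST antibody and Kinase Tracer 178 added for 60 min at RT. TR-FRET read at 340 nm excitation; 665/615 nm emission ratio falls as compound binding rises.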

`Cc1cccc(-c2nc(C3CC3)sc2Oc2ccnc(Nc3cc(C(N)=O)ccn3)c2)n1` [A-276, 2-((4-((2-Cyclopropyl-4-(6-methylpyridin-2-yl)thiazol-5-yl)oxy)pyridin-2-yl)amino)isonicotinamide]: the half-inhibitory concentration (IC50) in the test on TGF-β signaling and on ALK5 kinase was below 100 nM each time.

In the case of `CCc1nc(-c2cccc(C)n2)c(Oc2ccnc(Nc3ccc(C(=O)NCCN(C)C)cn3)c2)s1` [A-269, N-(2-(Dimethylamino)ethyl)-6-((4-((2-ethyl-4-(6-methylpyridin-2-yl)thiazol-5-yl)oxy)pyridin-2-yl)amino)nicotinamide], the IC50 with TGF-β signaling and on ALK5 kinase was below 100 nM each time. Regarding `CNC(=O)c1cccc(Nc2cc(Oc3oc(C4CC4)nc3-c3ccccc3)ccn2)n1` [A-302, 6-((4-((2-Cyclopropyl-4-phenyloxazol-5-yl)oxy)pyridin-2-yl)amino)-N-methylpicolinamide], the IC50 (usually the midpoint of a concentration-inhibition curve) with TGF-β signaling was below 100 nM.

On to `CCc1nc(-c2ccccc2)c(Oc2ccnc(Nc3cc(C(N)=O)ccn3)n2)s1` [A-242, 2-((4-((2-Ethyl-4-phenylthiazol-5-yl)oxy)pyrimidin-2-yl)amino)isonicotinamide], for which, in the test on TGF-β signaling, the half-inhibitory concentration (IC50) was above 100 nM. Still for that read-out and setting: then `CCc1nc(-c2ccccc2)c(Oc2ccnc(Nc3ccc(N4CCC(NC)C4)cn3)c2)s1` (stereo not shown) [A-312, 4-((2-Ethyl-4-phenylthiazol-5-yl)oxy)-N-(5-(3-(methylamino)pyrrolidin-1-yl)pyridin-2-yl)pyridin-2-amine], with below 100 nM; and `CCc1nc(-c2ccccc2)c(Oc2ccnc(Nc3ccc(C(=O)NCCN4CCN(C)CC4)cn3)c2)s1` [A-201, 6-((4-((2-Ethyl-4-phenylthiazol-5-yl)oxy)pyridin-2-yl)amino)-N-(2-(4-methylpiperazin-1-yl)ethyl)nicotinamide], with below 100 nM. Same read-out and setting: to `CCc1nc(-c2ccccc2)c(Oc2ccnc(Nc3ccc(NCCN4CCN(CC)CC4)cn3)c2)s1` [A-211, N^2-(4-((2-Ethyl-4-phenylthiazol-5-yl)oxy)pyridin-2-yl)-N^5-(2-(4-ethylpiperazin-1-yl)ethyl)pyridine-2,5-diamine] belongs below 100 nM. Same read-out and setting: then `O=C(O)c1cccc(Nc2cc(Oc3oc(C4CC4)nc3-c3ccccc3)ccn2)c1` [A-300, 3-((4-((2-Cyclopropyl-4-phenyloxazol-5-yl)oxy)pyridin-2-yl)amino)benzoic acid], with below 100 nM; and `CCc1nc(-c2ccccc2)c(Oc2ccnc(Nc3cccc(C(N)=O)n3)n2)s1` [A-241, 6-((4-((2-Ethyl-4-phenylthiazol-5-yl)oxy)pyrimidin-2-yl)amino)picolinamide], with below 100 nM.

For `CCc1nc(-c2cccc(C)n2)c(Oc2ccnc(Nc3cccc(NS(C)(=O)=O)c3)c2)s1` [A-272, N-(3-((4-((2-ethyl-4-(6-methylpyridin-2-yl)thiazol-5-yl)oxy)pyridin-2-yl)amino)phenyl)methanesulfonamide], the half-inhibitory concentration (IC50) in the test with TGF-β signaling is below 100 nM. As for `CCc1nc(-c2ccccc2)c(Oc2ccnc(Nc3ccc(NCCN4CCCC4)cn3)c2)s1` [A-210, N^2-(4-((2-Ethyl-4-phenylthiazol-5-yl)oxy)pyridin-2-yl)-N^5-(2-(pyrrolidin-1-yl)ethyl)pyridine-2,5-diamine], the IC50 with TGF-β signaling is below 100 nM. Same read-out and setting: to `NC(=O)c1cccc(Nc2cc(Oc3oc(C4CC4)nc3-c3ccccc3)ccn2)c1` [A-296, 3-((4-((2-Cyclopropyl-4-phenyloxazol-5-yl)oxy)pyridin-2-yl)amino)benzamide] belongs below 100 nM; to `CCc1nc(-c2ccccc2)c(Oc2ccnc(Nc3ccc(N4CCC(N)C4)cn3)c2)s1` (stereo not shown) [A-204, 5-(3-Aminopyrrolidin-1-yl)-N-(4-((2-ethyl-4-phenylthiazol-5-yl)oxy)pyridin-2-yl)pyridin-2-amine], below 100 nM. Consider `CCc1nc(-c2ccccc2)c(Oc2ccnc(Nc3cccc(C(N)=O)c3)n2)s1` [A-243, 3-((4-((2-Ethyl-4-phenylthiazol-5-yl)oxy)pyrimidin-2-yl)amino)benzamide], for which, in the test on TGF-β signaling, the concentration for half-maximal inhibition (IC50) is below 100 nM. On the same count and under the same terms, to `CCc1nc(-c2ccccc2)c(Oc2ccnc(Nc3ccc(C(=O)NCCN4CCN(CC)CC4)cn3)c2)s1` [A-203, 6-((4-((2-Ethyl-4-phenylthiazol-5-yl)oxy)pyridin-2-yl)amino)-N-(2-(4-ethylpiperazin-1-yl)ethyl)nicotinamide] belongs below 100 nM; to `CCc1nc(-c2ccccc2)c(Oc2ccnc(Nc3ccc(C(N)=O)cn3)n2)s1` [A-245, 6-((4-((2-Ethyl-4-phenylthiazol-5-yl)oxy)pyrimidin-2-yl)amino)nicotinamide], above 100 nM.

`CCc1nc(-c2ccccc2)c(Oc2ccnc(Nc3ccc(C(=O)NCCN4CCN(C(C)C)CC4)cn3)c2)s1` [A-202, 6-((4-((2-Ethyl-4-phenylthiazol-5-yl)oxy)pyridin-2-yl)amino)-N-(2-(4-isopropylpiperazin-1-yl)ethyl)nicotinamide]: the half-maximal inhibitory concentration (IC50) with TGF-β signaling was below 100 nM. The same measure, in the same setting: then `CNC(=O)c1cccc(Nc2cc(Oc3oc(C4CC4)nc3-c3ccccc3)ccn2)c1` [A-297, 3-((4-((2-Cyclopropyl-4-phenyloxazol-5-yl)oxy)pyridin-2-yl)amino)-N-methylbenzamide], with below 100 nM; and `CCc1nc(-c2ccccc2)c(Oc2ccnc(Nc3ccc(NCCN4CCN(C)CC4)cc3)c2)s1` [A-206, N^1-(4-((2-Ethyl-4-phenylthiazol-5-yl)oxy)pyridin-2-yl)-N^4-(2-(4-methylpiperazin-1-yl)ethyl)benzene-1,4-diamine], with below 100 nM; and `CCc1nc(-c2ccccc2)c(Oc2ccnc(Nc3ccc(NCCN4CCCC4)cc3)c2)s1` [A-208, N^1-(4-((2-Ethyl-4-phenylthiazol-5-yl)oxy)pyridin-2-yl)-N^4-(2-(pyrrolidin-1-yl)ethyl)benzene-1,4-diamine], with below 100 nM. With `O=C(O)c1cccc(Nc2cc(Oc3oc(C4CC4)nc3-c3ccccc3)ccn2)n1` [A-301, 6-((4-((2-Cyclopropyl-4-phenyloxazol-5-yl)oxy)pyridin-2-yl)amino)picolinic acid], the concentration for half-maximal inhibition (IC50) with TGF-β signaling was below 100 nM.

As for `CCc1nc(-c2cccc(C)n2)c(Oc2ccnc(Nc3ccc(C(=O)Nc4cc(F)cc(C(=O)OCCN(C)C)c4)cn3)c2)s1` [A-273, 2-(Dimethylamino)ethyl 3-(6-((4-((2-ethyl-4-(6-methylpyridin-2-yl)thiazol-5-yl)oxy)pyridin-2-yl)amino)nicotinamido)-5-fluorobenzoate], the IC50 with TGF-β signaling is above 100 nM.

`CCc1nc(-c2ccccc2)c(Oc2ccnc(Nc3ccc(NCCN4CCN(C(C)C)CC4)cc3)c2)s1` [A-205, N^1-(4-((2-Ethyl-4-phenylthiazol-5-yl)oxy)pyridin-2-yl)-N^4-(2-(4-isopropylpiperazin-1-yl)ethyl)benzene-1,4-diamine]: the IC50 in the test with TGF-β signaling is below 100 nM. On the same count and under the same terms, then `NS(=O)(=O)c1cccc(Nc2cc(Oc3oc(C4CC4)nc3-c3ccccc3)ccn2)c1` [A-298, 3-((4-((2-Cyclopropyl-4-phenyloxazol-5-yl)oxy)pyridin-2-yl)amino)benzenesulfonamide], with below 100 nM; and `CNC(=O)c1ccc(Nc2cc(Oc3sc(C4CC4)nc3-c3cccc(C)n3)ccn2)nc1` [A-282, 6-((4-((2-Cyclopropyl-4-(6-methylpyridin-2-yl)thiazol-5-yl)oxy)pyridin-2-yl)amino)-N-methylnicotinamide], with below 100 nM; and `CNC(=O)c1cccc(Nc2cc(Oc3sc(C4CC4)nc3-c3cccc(C)n3)ccn2)c1` [A-281, 3-((4-((2-Cyclopropyl-4-(6-methylpyridin-2-yl)thiazol-5-yl)oxy)pyridin-2-yl)amino)-N-methylbenzamide], with below 100 nM.

`CCc1nc(-c2ccccc2)c(Oc2ccnc(Nc3ccc(C(=O)NCCN4CCCC4)cn3)c2)s1` [A-199, 6-((4-((2-Ethyl-4-phenylthiazol-5-yl)oxy)pyridin-2-yl)amino)-N-(2-(pyrrolidin-1-yl)ethyl)nicotinamide]: the IC50 with TGF-β signaling was below 100 nM. On the same count and under the same terms, to `CCc1nc(-c2ccccc2)c(Oc2ccnc(Nc3ccc(N4CCC(NC)C4)cc3)c2)s1` (stereo not shown) [A-215, 4-((2-Ethyl-4-phenylthiazol-5-yl)oxy)-N-(4-(3-(methylamino)pyrrolidin-1-yl)phenyl)pyridin-2-amine] belongs below 100 nM; to `CCc1nc(-c2ccccc2)c(Oc2ccnc(Nc3ccc(NCCN4CCN(CC)CC4)cc3)c2)s1` [A-207, N^1-(4-((2-Ethyl-4-phenylthiazol-5-yl)oxy)pyridin-2-yl)-N^4-(2-(4-ethylpiperazin-1-yl)ethyl)benzene-1,4-diamine], below 100 nM.
